Data set [1] can be described thus: Inhibition of mTORC2 in human PC3 cells assessed as inhibition of AKTS473 phosphorylation after 1 hr by sandwich immunoassay. As to conditions: PC-3, 1 h. It is filed as cell-based.
Data set [2] relates to PC-3. The experiment in a line: cells. To be noted: Homo sapiens, PC-3, 72 h.
The next data set has as its target mTORC1 (Homo sapiens, UniProt P42345). The data set is described as follows: Inhibition of mTORC1 in human PC3 cells assessed as inhibition of S6 phosphorylation after 1 hr by sandwich immunoassay. It is filed as cell-based, PC-3.
Data set [3] deals with Phosphatidylinositol 4,5-bisphosphate 3-kinase catalytic subunit alpha isoform (Homo sapiens, UniProt P42336). The data set is described as follows: Inhibition of PI3Kalpha (unknown origin) by mobility shift assay.
Data set [4] can be described thus: Oral bioavailability in rat at 5 mg/kg. It is filed as ADME, organism-based. As to conditions: in vivo.
The nature of data set [5]: Mean residence time in rat at 2 mg/kg, iv. Format: ADME, organism-based. The arrangement: dose 2 mg/kg, route intravenous. To be noted: in vivo.
For data set [6], the system named is Plasma. The experiment in a line: Free plasma concentration in CB17 SCID mouse xenografted with human PC3 cells at 30 mg/kg, po qd at 24 hrs. It is filed as ADME, organism-based, PC-3. Also noted: dose 30 mg/kg, route oral. As to conditions: in vivo. For orientation: In xenograft studies the graft and the host belong to different species.
Data set [7] in a line: Drug uptake in tumor of CB17 SCID mouse xenografted with human PC3 cells at 30 mg/kg, po qd at 8 hrs. To be noted: read-out: Drug uptake. Format: ADME, organism-based, Neoplasm, PC-3. The arrangement: dose 30 mg/kg, route oral.
The nature of data set [8]: Plasma concentration in CB17 SCID mouse xenografted with human PC3 cells at 30 mg/kg, po qd at 4 hrs. It is filed as ADME, organism-based, PC-3. Also noted: dose 30 mg/kg, route oral.
Data set [9] is described as follows: Plasma concentration in CB17 SCID mouse xenografted with human PC3 cells at 30 mg/kg, po qd at 24 hrs. It is filed as ADME, organism-based, PC-3. The arrangement: dose 30 mg/kg, route oral.
Data set [10] can be described thus: Drug uptake in tumor of CB17 SCID mouse xenografted with human PC3 cells at 30 mg/kg, po qd at 4 hrs. To be noted: read-out: Drug uptake. Format: ADME, organism-based, Neoplasm, PC-3. Also noted: dose 30 mg/kg, route oral.
Data set [11] can be described thus: Clearance in rat at 2 mg/kg, iv. It is filed as ADME, organism-based. As to conditions: in vivo. Also noted: dose 2 mg/kg, route intravenous.
Data set [12] concerns PC-3. The data set is described as follows: Antitumor activity against human PC3 cells xenografted in CB17 SCID mouse assessed as tumor growth inhibition at 50 mg/kg, po qd administered on day 11 post tumor implantation measured after 32 days relative to vehicle-treated control. Format: functional. As to conditions: read-out: TGI.
Data set [13] has as its system Mus musculus. The experiment in a line: In vivo inhibition of mTORC2 in human PC3 cells xenografted in CB17 SCID mouse assessed as inhibition of AKTS473 phosphorylation at 30 mg/kg, po qd measured at 24 hrs relative to vehicle-treated control. As to conditions: CB17, PC-3, po.
In data set [14] the test system is Mus musculus. The data set is described as follows: In vivo inhibition of mTORC1 in human PC3 cells xenografted in CB17 SCID mouse assessed as inhibition of S6 phosphorylation at 30 mg/kg, po qd measured at 24 hrs relative to vehicle-treated control. It is filed as functional. To be noted: CB17, PC-3, 24 h.
Data set [15] concerns Plasma. The experiment in a line: Free plasma concentration in CB17 SCID mouse xenografted with human PC3 cells at 30 mg/kg, po qd at 2 hrs. Format: ADME, organism-based, PC-3. Also noted: dose 30 mg/kg, route oral. To be noted: in vivo.
The subject of data set [16] is PC-3. To be noted: Homo sapiens.
Data set [17] deals with PC-3. The experiment in a line: Antitumor activity against human PC3 cells xenografted in CB17 SCID mouse assessed as tumor growth inhibition at 25 mg/kg, po qd administered on day 11 post tumor implantation measured after 32 days relative to vehicle-treated control. It is filed as functional. As to conditions: read-out: TGI.
A short description of data set [18]: Volume of distribution at steady state in rat at 2 mg/kg, iv. Also noted: dose 2 mg/kg, route intravenous. To be noted: in vivo, read-out: Vdss. It is filed as ADME, organism-based.
A short description of data set [19]: Plasma concentration in CB17 SCID mouse xenografted with human PC3 cells at 30 mg/kg, po qd at 8 hrs. Format: ADME, organism-based, PC-3. The arrangement: dose 30 mg/kg, route oral.
Data set [20] concerns Mus musculus. The data set is described as follows: Toxicity in CB17 SCID mouse xenografted with human PC3 cells at 10 to 50 mg/kg, po qd administered on day 11 post tumor implantation measured after 32 days. It is filed as organism-based, PC-3. Also noted: dose 10-50 mg/kg, route oral. To be noted: in vivo.
The nature of data set [21]: Tmax in rat at 5 mg/kg, po. The arrangement: dose 5 mg/kg, route oral. Format: ADME, organism-based. To be noted: in vivo.
In data set [22] the test system is Mus musculus. The data set is described as follows: In vivo inhibition of mTORC1 in human PC3 cells xenografted in CB17 SCID mouse assessed as inhibition of S6 phosphorylation at 30 mg/kg, po qd after 2 to 8 hrs relative to vehicle-treated control. Format: functional. As to conditions: CB17, PC-3.
A short description of data set [23]: AUC (0 to infinity) in rat at 2 mg/kg, iv. It is filed as ADME, organism-based. The arrangement: time infinity, dose 2 mg/kg, route intravenous. As to conditions: plasma.
Data set [24] deals with PC-3. As to conditions: Homo sapiens. The source holds these as a separate data set.
Data set [25] is described as follows: Plasma concentration in CB17 SCID mouse xenografted with human PC3 cells at 30 mg/kg, po qd at 2 hrs. Format: ADME, organism-based, PC-3. The arrangement: dose 30 mg/kg, route oral.
Data set [26] can be described thus: Cmax in rat at 5 mg/kg, po. Format: ADME, organism-based. The arrangement: dose 5 mg/kg, route oral. To be noted: in vivo.
The subject of data set [27] is PC-3. To be noted: Homo sapiens. This is another data set of the same source.
Data set [28] can be described thus: Drug uptake in tumor of CB17 SCID mouse xenografted with human PC3 cells at 30 mg/kg, po qd at 24 hrs. To be noted: read-out: Drug uptake. Also noted: dose 30 mg/kg, route oral. Format: ADME, organism-based, Neoplasm, PC-3.
Data set [29] has as its system PC-3. To be noted: Homo sapiens. This is another data set of the same source.
Data set [30] is described as follows: Plasma protein binding in CB17 SCID mouse xenografted with human PC3 cells at 30 mg/kg, po qd after 24 hrs. It is filed as ADME, organism-based, PC-3. As to conditions: read-out: PPB (converted). Also noted: dose 30 mg/kg, route oral.
Data set [31] deals with Mus musculus. The data set is described as follows: In vivo inhibition of mTORC2 in human PC3 cells xenografted in CB17 SCID mouse assessed as inhibition of AKTS473 phosphorylation at 30 mg/kg, po qd after 2 to 8 hrs relative to vehicle-treated control. To be noted: CB17, PC-3, po.
Data set [32] in a line: Drug uptake in tumor of CB17 SCID mouse xenografted with human PC3 cells at 30 mg/kg, po qd at 2 hrs. It is filed as ADME, organism-based, Neoplasm, PC-3. The arrangement: dose 30 mg/kg, route oral. To be noted: read-out: Drug uptake.
For data set [33], the system named is Plasma. The data set is described as follows: Free plasma concentration in CB17 SCID mouse xenografted with human PC3 cells at 30 mg/kg, po qd at 8 hrs. Format: ADME, organism-based, PC-3. Also noted: dose 30 mg/kg, route oral. As to conditions: in vivo.
A short description of data set [34]: AUC (0 to infinity) in rat at 5 mg/kg, po. Also noted: time infinity, dose 5 mg/kg, route oral. As to conditions: plasma. It is filed as ADME, organism-based.
Data set [35] has as its system Plasma. The experiment in a line: Free plasma concentration in CB17 SCID mouse xenografted with human PC3 cells at 30 mg/kg, po qd at 4 hrs. Format: ADME, organism-based, PC-3. Also noted: dose 30 mg/kg, route oral. To be noted: in vivo.
For data set [36], the system named is PC-3. The experiment in a line: Antitumor activity against human PC3 cells xenografted in CB17 SCID mouse assessed as tumor growth inhibition at 10 mg/kg, po qd administered on day 11 post tumor implantation measured after 32 days relative to vehicle-treated control. Format: functional. As to conditions: read-out: TGI.
The target of data set [37] is Insulin receptor (Homo sapiens) (UniProt P06213). The data set is described as follows: Inhibition of IRK1 (unknown origin) assessed as remaining activity at 10 uM relative to control.

The structures appear in SMILES notation. Activity calls are given as the source filed them. The calls are words filed in the database; no cut-off is given here.

Phosphatidylinositol 4,5-bisphosphate 3-kinase catalytic subunit alpha isoform, sequence (P42336 whole entry, canonical isoform): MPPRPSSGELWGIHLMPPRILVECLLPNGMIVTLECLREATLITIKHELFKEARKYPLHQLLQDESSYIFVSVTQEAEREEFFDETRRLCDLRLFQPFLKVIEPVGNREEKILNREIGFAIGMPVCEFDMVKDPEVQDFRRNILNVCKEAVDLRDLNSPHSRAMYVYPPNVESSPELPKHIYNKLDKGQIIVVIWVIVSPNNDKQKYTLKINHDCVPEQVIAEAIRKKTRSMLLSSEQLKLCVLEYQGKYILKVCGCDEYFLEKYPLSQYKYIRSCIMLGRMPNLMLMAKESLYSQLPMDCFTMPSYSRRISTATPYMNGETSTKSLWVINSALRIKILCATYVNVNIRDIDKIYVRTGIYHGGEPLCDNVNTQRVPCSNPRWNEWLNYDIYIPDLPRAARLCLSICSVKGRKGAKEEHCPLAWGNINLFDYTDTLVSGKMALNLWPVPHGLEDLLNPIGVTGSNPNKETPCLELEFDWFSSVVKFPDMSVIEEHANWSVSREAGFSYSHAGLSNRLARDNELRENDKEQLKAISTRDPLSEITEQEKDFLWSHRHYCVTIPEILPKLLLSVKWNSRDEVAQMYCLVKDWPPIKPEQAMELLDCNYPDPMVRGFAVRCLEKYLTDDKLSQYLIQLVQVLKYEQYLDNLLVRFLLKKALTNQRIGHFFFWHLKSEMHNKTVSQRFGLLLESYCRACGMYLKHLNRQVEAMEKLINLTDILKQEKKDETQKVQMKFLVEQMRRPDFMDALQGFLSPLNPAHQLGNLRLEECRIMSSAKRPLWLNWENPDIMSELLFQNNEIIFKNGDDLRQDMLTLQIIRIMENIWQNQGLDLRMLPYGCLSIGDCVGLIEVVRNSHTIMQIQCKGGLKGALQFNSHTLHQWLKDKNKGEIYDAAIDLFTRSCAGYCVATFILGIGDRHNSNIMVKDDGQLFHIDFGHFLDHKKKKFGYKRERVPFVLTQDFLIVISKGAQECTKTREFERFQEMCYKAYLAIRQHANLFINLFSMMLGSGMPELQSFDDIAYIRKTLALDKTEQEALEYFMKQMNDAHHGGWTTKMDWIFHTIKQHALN
Insulin receptor (Homo sapiens), sequence (P06213 whole entry, looked up): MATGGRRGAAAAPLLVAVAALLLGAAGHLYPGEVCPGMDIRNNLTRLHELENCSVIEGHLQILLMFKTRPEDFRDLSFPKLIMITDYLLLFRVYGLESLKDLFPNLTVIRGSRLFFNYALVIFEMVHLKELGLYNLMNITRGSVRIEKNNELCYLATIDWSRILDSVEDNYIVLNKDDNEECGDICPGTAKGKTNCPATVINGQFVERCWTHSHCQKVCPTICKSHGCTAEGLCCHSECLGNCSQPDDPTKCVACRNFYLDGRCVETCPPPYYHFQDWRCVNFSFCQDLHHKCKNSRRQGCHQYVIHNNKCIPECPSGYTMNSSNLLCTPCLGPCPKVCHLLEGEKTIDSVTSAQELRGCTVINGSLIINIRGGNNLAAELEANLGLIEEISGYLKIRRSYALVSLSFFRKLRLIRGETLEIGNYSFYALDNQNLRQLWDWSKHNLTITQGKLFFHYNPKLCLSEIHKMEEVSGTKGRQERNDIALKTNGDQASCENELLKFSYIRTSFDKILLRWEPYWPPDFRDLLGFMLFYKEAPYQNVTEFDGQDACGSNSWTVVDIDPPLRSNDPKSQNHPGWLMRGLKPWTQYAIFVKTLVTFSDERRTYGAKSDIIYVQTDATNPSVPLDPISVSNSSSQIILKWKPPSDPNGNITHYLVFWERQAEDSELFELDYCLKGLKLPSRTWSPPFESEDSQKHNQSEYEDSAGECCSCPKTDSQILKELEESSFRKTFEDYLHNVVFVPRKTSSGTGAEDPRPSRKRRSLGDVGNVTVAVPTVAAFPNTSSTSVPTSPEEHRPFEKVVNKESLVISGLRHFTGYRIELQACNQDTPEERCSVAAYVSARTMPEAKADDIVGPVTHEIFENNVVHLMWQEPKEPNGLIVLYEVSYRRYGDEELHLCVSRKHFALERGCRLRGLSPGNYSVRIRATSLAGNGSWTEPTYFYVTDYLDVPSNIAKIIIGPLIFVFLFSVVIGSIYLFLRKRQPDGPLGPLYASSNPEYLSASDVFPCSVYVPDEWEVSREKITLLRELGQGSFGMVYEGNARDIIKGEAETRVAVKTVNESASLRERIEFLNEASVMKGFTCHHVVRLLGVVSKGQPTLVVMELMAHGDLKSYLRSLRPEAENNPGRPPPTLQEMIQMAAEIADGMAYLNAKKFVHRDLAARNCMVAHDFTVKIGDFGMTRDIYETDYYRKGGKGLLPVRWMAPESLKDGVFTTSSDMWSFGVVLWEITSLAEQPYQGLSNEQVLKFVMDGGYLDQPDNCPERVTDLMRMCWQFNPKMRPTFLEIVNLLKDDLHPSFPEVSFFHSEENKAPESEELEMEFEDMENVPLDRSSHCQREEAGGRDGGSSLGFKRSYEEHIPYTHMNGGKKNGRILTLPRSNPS

The term IC50 denotes the concentration at which inhibition is half-maximal. In the case of `CC(C)(O)c1ccc(-c2cnc3[nH]c(=O)n(CC4CCOCC4)c3n2)cn1`, the IC50 in data set [1] was 2550 nM; in the data set with PC-3 [2], 4180 nM; at mTORC1, 2410 nM; in data set [3], over 30000 nM.
One may read the bioavailability as dose-corrected exposure relative to a reference, in per cent. In turn, `O=C1CN(CCC2CCOCC2)c2nc(-c3ccc(-c4nc[nH]n4)cc3)cnc2N1` displayed a bioavailability in [4] of 0%. This molecule also returned an IC50 in the data set with PC-3 [2] of 148 nM.
In general, MRT refers to a mean duration of stay, worked out from the concentration-time curve. Broadly, the clearance is the volume of plasma or blood freed of the substance per unit of time. By Tmax is commonly meant the time from dosing to the highest level. For orientation: AUC(0-inf) means the area under the concentration-time curve extrapolated to infinity. Read a high AUC(0-inf) as more exposure. In general, Cmax refers to the highest concentration seen after dosing. As to `CC(C)(O)c1ccc(-c2cnc3c(n2)N(CC2CCOCC2)CC(=O)N3)cn1`, the MRT in [5] is 2.7 h. Moreover, the “Cp(f)” value with Plasma [6] stood at 70 nM; with Plasma [15], 2390 nM; with Plasma [33], 850 nM; in the data set on Plasma [35], 1860 nM. The concentration at 8 h is 1760 nM in data set [7] and 2420 nM in data set [19]. For the same molecule, the concentration at 4 h in data set [8] is 5320 nM; in data set [10] it was 2870 nM. Besides, the concentration at 24 h in data set [9] and in [28] was 190 nM throughout. Further, the clearance in data set [11] was found to be 8.1 mL/min/kg. Besides, the inhibition in vivo at 50 mg/kg in the data set with PC-3 [12] stood at 84%. Also, the inhibition in vivo at 30 mg/kg was 28% in the data set with Mus musculus [13], 43% in the data set on Mus musculus [14], 87% in the data set on Mus musculus [22] and 53% in the data set with Mus musculus [31]. Further, the TGI result in the data set with PC-3 [16] is “Dose-dependent effect”. Also, the inhibition in vivo at 25 mg/kg in the data set with PC-3 [17] was found to be 63%. Also, in data set [18], the Vd was 1.3 L/kg. Moreover, in data set [4], the bioavailability came to 100%. Further, the Activity result in the data set on Mus musculus [20] is given as “Non-toxic”. Further, the time to peak (Tmax) in data set [21] is 1.2 h. Moreover, the total exposure AUC(0-inf) in [23] worked out at 10.8 µM·h; in [34] it was 28 µM·h. The TGI result in the data set with PC-3 [24], in the data set with PC-3 [27] and in the data set on PC-3 [29] was “Active” in each case. Further, the concentration at 2 h came to 6830 nM in data set [25] and 4100 nM in [32]. This molecule also showed a Cmax in [26] of 3300 nM. For the same molecule, the fraction unbound at 24 h in [30] is 0.35. In addition, in data set [3], the half-maximal inhibitory concentration (IC50) was over 30000 nM. Further, the inhibition in vivo at 10 mg/kg with PC-3 [36] was determined as 18%.
For the molecule `O=c1[nH]c2ncc(-c3ccc(-c4nc[nH]n4)cc3)nc2n1CCC1CCOCC1`, in [4], the bioavailability is 0.85%. The IC50 worked out at 18 nM in [1], 224 nM in the data set on PC-3 [2] and 40 nM on mTORC1. For the same molecule, the activity at 10 µM in [37] was 93%.

The values are drawn from ChEMBL document CHEMBL2346597, “Use of core modification in the discovery of CC214-2, an orally available, selective inhibitor of mTOR kinase” (Bioorg Med Chem Lett, 2013).
